Source: patent US20170367588A1, “METHODS USING FACIAL TEMPERATURE TO EVALUATE POST-INGESTIVE IMPACT OF FOOD INGREDIENTS ON FAT OXIDATION” (NESTEC S.A., priority 2014, published 2017)
“Also recorded” adds a separate entry of the source.

Legend:
[1] = literature (Ludy et al. 2011); cited from earlier work
[2] = clinical trial, facial thermography with infrared camera; assay type: in vivo, human; set-up: AUC Difference of the temperature vs placebo: unit not given beside the values; details: for nose temperature after intake: Zone-2 (nose), over the 15 minutes post-ingestion, FIG. 4A; for cheek temperature after intake: Zone-12 (cheeks), immediately after intake, FIG. 4B
Procedure: Participants. Participants were healthy men with 19<BMI<25 and 60 kg minimum body weight. The age was in the 20-50 range. Participants had to like spicy food but are moderate spicy food eaters. Screening of candidates was done through a questionnaire on spicy food habits. The clinical trial we approved by a competent ethics committee (Commission cantonale (VD) d'Etique pour recherché sur l'Etre Humain) and participants gave their written informed consent. This trial was conducted according to the principles and rules laid down in the Declaration of Helsinki and its subsequent amendments.
The presented study was a double-blinded, balanced, randomized, cross-over, placebo-controlled clinical trial. For each measure, the subjects had tested after an over-night fast. They had been requested to use their car or public transportation to come to the investigation site in order to keep morning physical activity level as low as possible. Moreover, consumption of caffeine was not permitted after the lunch meal (12 p.m.) before each session, and participants had been asked to refrain their spice consumption for two days prior each session. Each sample was evaluated in two different sessions A and B, with the same design but different recordings (FIG. 1A).
Each session started at 8:00 a.m. with a 30 minutes rest period and measurement preparation. During all the testing sessions, subjects were seated comfortably. Room temperature was in the 20 to 22° C. range. Subjects were instructed to remain quiet and still, but they were allowed to watch TV. Parameters were recorded 30 minutes before and 90 minutes after ingestion of each sample (FIG. 1A).
Treatment. All active TRP agonists were in 200 ml liquid tomato juice (Granini) at room temperature and served with a slice of bread. Placebo was 200 ml Commercial tomato juice. Active ingredients per 200 ml were 1 mg of Capsaicin (Spectrum chemicals), 0.2 ml of Givaudan cooling flavor (QB-113-979-5) or 70 mg of Cinnamaldehyde (Sigma). All ingredients were in vitro validated in cell lines expressing hTRPV1, hTRPA1 or hTRPM8 according to the calcium imaging method described in Riera et al, 2009 (FIG. 2).
Facial thermography. In this study, infrared thermal imaging of the face has been used as an exploratory, non-invasive recording method of sympathetic nervous system activity. Using a FLIR A325 infrared camera (FLIR Systems, Inc) subjects were continuously recorded at a distance of ˜1 m. They were comfortably installed in a chair with the head maintained fixed on a chin-rest support, to facilitate the further image analysis. Room temperature was in the 20 to 22° C. range. The camera FLIR A325 is equipped with a 25° lens, resolution is 320×240 pixels, and sensitivity is 0.05° C. and accuracy±2° C. The recording was performed by acquiring 1 image/second. Thermographic imaging software, FLIR ResearchIR is used to acquire images.
Facial thermography data were extracted using in-home algorithms developed within the Matlab framework (The Mathworks Inc., Natick, Mass., USA). First, a graphical user interface (GUI) was created to help defining manually a temperature threshold highlighting primarily subject's faces. An alignment of the face was then computed and twelve regions of interest (ROIs) drawn manually using the GUI (FIG. 1B). Face alignment/orientation correction was computed image by image by first creating a binary mask using the manually set temperature threshold. Holes in the binary mask were filled and the region with the greatest continuous area was selected. The selected region centroid was determined using the built-in Matlab region properties tool (regionprops). With the same tool, an ellipse was fitted within the region to obtain the angular orientation of the ellipse's major axis compared to the x-axis. […]

[3] = clinical trial, indirect calorimetry (energy expenditure and substrate oxidation); assay type: in vivo, human; details: for energy expenditure compared to placebo / fat oxidation compared to placebo: healthy men, time standardized AUC after ingestion; for energy expenditure compared to placebo: single ingestion in 200 ml tomato juice (1 mg capsaicin, 70 mg cinnamaldehyde, 200 μl CF); for fat oxidation compared to placebo: single ingestion in 200 ml tomato juice; for higher post-prandial fat oxidation compared to placebo, magnitude: over the period of the experiment (90 min), capsaicin 1 mg/200 ml, cinnamaldehyde 70 mg/200 ml
Procedure: Participants. Participants were healthy men with 19<BMI<25 and 60 kg minimum body weight. The age was in the 20-50 range. Participants had to like spicy food but are moderate spicy food eaters. Screening of candidates was done through a questionnaire on spicy food habits. The clinical trial we approved by a competent ethics committee (Commission cantonale (VD) d'Etique pour recherché sur l'Etre Humain) and participants gave their written informed consent. This trial was conducted according to the principles and rules laid down in the Declaration of Helsinki and its subsequent amendments. The presented study was a double-blinded, balanced, randomized, cross-over, placebo-controlled clinical trial. For each measure, the subjects had tested after an over-night fast. They had been requested to use their car or public transportation to come to the investigation site in order to keep morning physical activity level as low as possible. Moreover, consumption of caffeine was not permitted after the lunch meal (12 p.m.) before each session, and participants had been asked to refrain their spice consumption for two days prior each session. Each sample was evaluated in two different sessions A and B, with the same design but different recordings (FIG. 1A). Each session started at 8:00 a.m. with a 30 minutes rest period and measurement preparation. During all the testing sessions, subjects were seated comfortably. Room temperature was in the 20 to 22° C. range. Subjects were instructed to remain quiet and still, but they were allowed to watch TV. Parameters were recorded 30 minutes before and 90 minutes after ingestion of each sample (FIG. 1A). Treatment. All active TRP agonists were in 200 ml liquid tomato juice ([…]) at room temperature and served with a slice of bread. Placebo was 200 ml Commercial tomato juice. Active ingredients per 200 ml were 1 mg of Capsaicin (Spectrum chemicals), 0.2 ml of Givaudan cooling flavor (QB-113-979-5) or 70 mg of Cinnamaldehyde (Sigma). All ingredients were in vitro validated in cell lines expressing hTRPV1, hTRPA1 or hTRPM8 according to the calcium imaging method described in Riera et al, 2009 (FIG. 2). Energy expenditure was measured using indirect calorimetry. Indirect calorimetry is a measure of respiratory gas exchange (oxygen consumption and carbon dioxide production), which estimates the amount of calories “burned.” This measurement was performed with the MAX-II device (Max II metabolic system, AEI technologies, Naperville, Ill., USA). The equation used by the MAX-II device to evaluate energy expenditure is the simplified Weir formula: REE=(3.941×VO2)+(1.106×VCO2), where: After answering questions from the compliance questionnaire, participants were comfortably installed in semi-recumbent position in a reclining bed, at an angle allowing the participant to ingest the test solution without having to adjust position between metabolic rate measurement periods and treatment ingestion. A canopy was installed over participant's head. Test started 08:30 a.m. following a stabilization period allowing FeCO2 values to reach physiologic range. Substrate oxidation (carbohydrates and fat utilization) and the respiratory quotient (RQ) were calculated using the VO2 and VCO2 values obtained from the MAX-II device during the same timeline than energy expenditure. VO2 and VCO2 values were corrected for protein oxidation. The following equations were used to calculate the amount of fat and carbohydrates oxidized (Dietary Reference Intakes for Energy, Carbohydrate, Fiber, Fat, Fatty Acids, Cholesterol, Protein, and Amino Acids (Macronutrients) (2002/2005) National Academies Press, pp. 633-645): All endpoints have been analyzed using a linear mixed model to take into account the correlation between repeated measures. […]

mouse variant of TRPA1 = mouse variant of TRPA1 (Mus musculus, UniProt Q8BLA8); details: mouse variant of TRPA1, based on the literature; cited from earlier work
hTRPA1 = biological target: T1, hTRPA1 (Homo sapiens, UniProt O75762); assay: in vitro validation in cell lines expressing hTRPA1, calcium imaging; assay type: cell-based; details: human TRPA1, in vitro, data not shown
T1 construct: expressed in transfected cells
Procedure: Treatment. All active TRP agonists were in 200 ml liquid tomato juice ([…]) at room temperature and served with a slice of bread. Placebo was 200 ml Commercial tomato juice. Active ingredients per 200 ml were 1 mg of Capsaicin (Spectrum chemicals), 0.2 ml of Givaudan cooling flavor (QB-113-979-5) or 70 mg of Cinnamaldehyde (Sigma). All ingredients were in vitro validated in cell lines expressing hTRPV1, hTRPA1 or hTRPM8 according to the calcium imaging method described in Riera et al, 2009 (FIG. 2). The objective of this trial was to assess if the stimulation of TRPA1 and TRPM8 pathways could be as efficient at impacting the energy balance as is the simulation of TRPV1 by capsaicin or capsiate. Based on the literature, we selected the most representative TRPA1 agonist: cinnamaldehyde activating specifically the mouse variant of TRPA1 with an EC50 of 60 μM, its specificity on the human form of the receptor has been confirmed in vitro (data not shown). In order to identify an efficient and specific agonist of hTRPM8, different ingredients with cooling properties have been evaluated in vitro. A cooling flavor (CF) provided by Givaudan, activating specifically hTRPM8 with an EC50 of 0.07% (FIG. 2) has been selected. As a positive control, capsaicin was evaluated in parallel to cinnamaldehyde and CF in this trial.

[4] = Zone 1, all period post ingestion
[5] = Zone 2 (nose), all period post ingestion
[6] = Zone 3, all period post ingestion
[7] = Zone 4, all period post ingestion
[8] = Zone 5, all period post ingestion
[9] = Zone 6, all period post ingestion
[10] = Zone 7, all period post ingestion
[11] = Zone 8, all period post ingestion
[12] = Zone 9, all period post ingestion
[13] = Zone 10 (chin), all period post ingestion
[14] = Zone 11, all period post ingestion
[15] = Zone 12 (cheeks), all period post ingestion

T1 sequence (O75762 whole entry): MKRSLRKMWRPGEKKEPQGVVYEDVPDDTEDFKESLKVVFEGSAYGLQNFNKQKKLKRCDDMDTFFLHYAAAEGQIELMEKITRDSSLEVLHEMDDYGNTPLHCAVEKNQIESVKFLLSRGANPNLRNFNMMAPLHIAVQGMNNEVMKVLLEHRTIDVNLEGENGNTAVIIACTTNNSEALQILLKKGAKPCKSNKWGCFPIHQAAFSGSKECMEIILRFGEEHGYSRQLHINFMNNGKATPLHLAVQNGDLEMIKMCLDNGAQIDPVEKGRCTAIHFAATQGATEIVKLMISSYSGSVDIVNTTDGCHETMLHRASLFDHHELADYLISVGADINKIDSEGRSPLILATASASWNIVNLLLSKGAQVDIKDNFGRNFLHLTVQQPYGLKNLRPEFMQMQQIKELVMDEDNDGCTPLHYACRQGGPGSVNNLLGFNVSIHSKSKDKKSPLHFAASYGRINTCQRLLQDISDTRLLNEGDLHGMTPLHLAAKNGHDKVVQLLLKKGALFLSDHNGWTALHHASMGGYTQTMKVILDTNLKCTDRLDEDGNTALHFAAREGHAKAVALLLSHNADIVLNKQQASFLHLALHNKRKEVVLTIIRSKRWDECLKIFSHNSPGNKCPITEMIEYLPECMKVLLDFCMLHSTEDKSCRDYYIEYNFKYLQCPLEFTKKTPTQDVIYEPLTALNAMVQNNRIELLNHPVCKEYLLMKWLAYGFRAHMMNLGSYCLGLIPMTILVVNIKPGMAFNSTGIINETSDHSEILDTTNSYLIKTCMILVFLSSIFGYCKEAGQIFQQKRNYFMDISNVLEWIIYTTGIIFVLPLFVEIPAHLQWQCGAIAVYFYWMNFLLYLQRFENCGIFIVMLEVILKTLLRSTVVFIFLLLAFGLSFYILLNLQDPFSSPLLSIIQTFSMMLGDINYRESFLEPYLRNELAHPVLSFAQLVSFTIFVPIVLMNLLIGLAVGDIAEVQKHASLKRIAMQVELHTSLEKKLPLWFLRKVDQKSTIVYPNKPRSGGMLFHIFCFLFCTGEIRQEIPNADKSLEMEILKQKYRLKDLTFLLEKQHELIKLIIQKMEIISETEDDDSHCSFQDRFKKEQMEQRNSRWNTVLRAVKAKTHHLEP

Structure (SMILES): COc1cc(CNC(=O)CCCC/C=C/C(C)C)ccc1O [capsaicin]
- efficient doses for increasing energy expenditure and fat oxidation [1]: ≥ 20 mg
- AUC Difference of the temperature vs placebo [2, 4]: 18.584
- AUC Difference of the temperature vs placebo [2, 5]: 54.439
- AUC Difference of the temperature vs placebo [2, 6]: 16.959
- AUC Difference of the temperature vs placebo [2, 7]: 14.893
- AUC Difference of the temperature vs placebo [2, 8]: 8.126
- AUC Difference of the temperature vs placebo [2, 9]: 13.186
- AUC Difference of the temperature vs placebo [2, 10]: 9.255
- AUC Difference of the temperature vs placebo [2, 11]: 12.469
- AUC Difference of the temperature vs placebo [2, 12]: 26.056
- AUC Difference of the temperature vs placebo [2, 13]: 25.26
- AUC Difference of the temperature vs placebo [2, 14]: 3.299
- AUC Difference of the temperature vs placebo [2, 15]: 22.575
- nose temperature after intake [2]: significant increase; also recorded: increase nose temperature
- energy expenditure compared to placebo [3]: no significant differences
- fat oxidation compared to placebo [3]: higher level of fat oxidation
- higher post-prandial fat oxidation compared to placebo, magnitude [3]: about 556.2 mg

Structure (SMILES): O=CC=Cc1ccccc1 [cinnamaldehyde]
- AUC Difference of the temperature vs placebo [2, 4]: 22.396
- AUC Difference of the temperature vs placebo [2, 5]: 42.064
- AUC Difference of the temperature vs placebo [2, 6]: 30.816
- AUC Difference of the temperature vs placebo [2, 7]: 22.118
- AUC Difference of the temperature vs placebo [2, 8]: 14.065
- AUC Difference of the temperature vs placebo [2, 9]: 21.144
- AUC Difference of the temperature vs placebo [2, 10]: 18.856
- AUC Difference of the temperature vs placebo [2, 11]: 18.384
- AUC Difference of the temperature vs placebo [2, 12]: 18.947
- AUC Difference of the temperature vs placebo [2, 13]: 34.072
- AUC Difference of the temperature vs placebo [2, 14]: 18.237
- AUC Difference of the temperature vs placebo [2, 15]: 26.571
- nose temperature after intake [2]: significant increase; also recorded: increase nose temperature
- chin temperature compared to placebo ([2]; Zone-10 (chin), prolonged time after ingestion, adjusted p-value 0.0486): increases chin temperature
- cheek temperature after intake [2]: increases unilaterally cheek temperature
- cheek temperature after intake ([2]; listed as Cinnamaldehyde): increased temperature
- energy expenditure compared to placebo [3]: increases energy expenditure
- fat oxidation compared to placebo [3]: higher level of fat oxidation
- higher post-prandial fat oxidation compared to placebo, magnitude [3]: ~512.7 mg
- EC50 (mouse variant of TRPA1): 60 µM
- specificity on the human form of the receptor (hTRPA1): confirmed
